Earlier results on one compound are cited in patent US20180185454A1, “AGENT FOR PREVENTING ONSET OF IDIOPATHIC OSTEONECROSIS OF FEMORAL HEAD AND/OR SUPPRESSING PROGRESS OF SAME” (ASAHI KASEI PHARMA CORPORATION, priority 2015, published 2018).

Where two headings read alike, the source gives them in different places.

One data set relates to ION. The settings on record: vs alendronate control; no statistical superiority between the two groups; dosage not disclosed.
Data set [1] relates to osteonecrosis of the jawbone. To be noted: induced by bisphosphonates and denosumab.

Turning to `CC[C@H](C)[C@H](NC(=O)[C@H](CCC(=O)O)NC(=O)[C@H](CO)NC(=O)[C@@H](NC(=O)[C@@H](N)CO)C(C)C)C(=O)N[C@@H](CCC(N)=O)C(=O)N[C@@H](CC(C)C)C(=O)N[C@@H](CCSC)C(=O)N[C@@H](Cc1cnc[nH]1)C(=O)N[C@@H](CC(N)=O)C(=O)N[C@@H](CC(C)C)C(=O)NCC(=O)N[C@@H](CCCCN)C(=O)N[C@@H](Cc1cnc[nH]1)C(=O)N[C@@H](CC(C)C)C(=O)N[C@@H](CC(N)=O)C(=O)N[C@@H](CO)C(=O)N[C@@H](CCSC)C(=O)N[C@@H](CCC(=O)O)C(=O)N[C@@H](CCCN=C(N)N)C(=O)N[C@H](C(=O)N[C@@H](CCC(=O)O)C(=O)N[C@@H](Cc1c[nH]c2ccccc12)C(=O)N[C@@H](CC(C)C)C(=O)N[C@@H](CCCN=C(N)N)C(=O)N[C@@H](CCCCN)C(=O)N[C@@H](CCCCN)C(=O)N[C@@H](CC(C)C)C(=O)N[C@@H](CCC(N)=O)C(=O)N[C@@H](CC(=O)O)C(=O)N[C@H](C(=O)N[C@@H](Cc1cnc[nH]1)C(=O)N[C@@H](CC(N)=O)C(=O)N[C@@H](Cc1ccccc1)C(=O)O)C(C)C)C(C)C` [teriparatide], the “femoral head collapse progress (difference in collapse values before and after administration, simple x-ray frontal views)” value with ION is on record as “tended to suppress femoral head collapse progress in comparison to alendronate”. Also, the “effect on bone formation markers” value with bone formation markers (20 μg daily formulation) was “markedly increases”; with bone formation markers (56.5 μg once-a-week formulation), “only slightly”. For the same compound, the “effect against osteonecrosis of the jawbone” value in data set [1] is listed as “have an effect”.
